Results from patent US20030166161A1, “Gene that imparts selective proliferative activity” (priority 1997, published 2003).

B1: G-CSF: cytokine (hematopoietic factor); human G-CSF provided by Chugai Pharmaceuticals (protein)
chain: TPLGPASSLPQSFLLKCLEQVRKIQGDGAALQEKLCATYKLCHPEELVLLGHSLGIPWAPLSSCPSQALQLAGCLSQLHSGLFLYQGLLQALEGISPELGPTLDTLQLDVADFATTIWQQMEELGMAPALQPTQGAMPAFASAFQRRAGGVLVASHLQSFLEVSYRVLRHLAQP
B2: Mpl-ER: fusion protein between Mpl and ER (protein)
chain: QDVSLLASDSEPLKCFSRTFEDLTCFWDEEEAAPSGTYQLLYAYPREKPRACPLSSQSMPHFGTRYVCQFPDQEEVRLFFPLHLWVKNVFLNQTRTQRVLFVDSVGLPAPPSIIKAMGGSQPGELQISWEEPAPEISDFLRYELRYGPRDPKNSTGPTVIQLIATETCCPALQRPHSASALDQSPCAQPTMPWQDGPKQTSPSREASALTAEGGSCLISGLQPGNSYWLQLRSEPDGISLGGSWGSWSLPVTVDLPGDAVALGLQCFTLDLKNVTCQWQQQDHASSQGFFYHSRARCCPRDRYPIWENCEEEEKTNPGLQTPQFSRCHFKSRNDSIIHILVEVTTAPGTVHSYLGSPFWIHQAVRLPTPNLHWREISSGHLELEWQHPSSWAAQETCYQLRYTGEGHQDWKVLEPPLGARGGTLELRPRSRYRLQLRARLNGPTYQGPWSSWSDPTRVETATETAWISLVTALHLVLGLSAVLGLLLLRWQFPAHYRRLRHALWPSLPDLHRVLGQYLRDTAALSPPKATVSDTCEEVEPSLLEILPKSSERTPLPLCSSQAQMDYRRLQPSCLGTMPLSVCPPMAESGSCCTTHIANHSYLPLSYWQQPGTSGDMRAANLWPSPLVIKHTKKNSPALSLTADQMVSALLDAEPPLIYSEYDPSRPFSEASMMGLLTNLADRELVHMINWAKRVPGFGDLNLHDQVHLLECAWLEILMIGLVWRSMEHPGKLLFAPNLLLDRNQGKCVEGMVEIFDMLLATSSRFRMMNLQGEEFVCLKSIILLNSGVYTFLSSTLKSLEEKDHIHRVLDKINDTLIHLMAKAGLTLQQQHRRLAQLLLILSHIRHMSNKGMEHLYNMKCKNVVPLYDLLLEMLDAHRLHAPASRMGVPPEEPSQSQLTTTSSTSAHSLQTYYIPPEAEGFPNTI

Legend:
[1] = system: Parental Ba/F3 cells; assay: XTT proliferation assay of parental Ba/F3 cells; format: cell-based; details: IL-3, 10^−9 M G-CSF, 10^−7 M Tm, 10^−7 M E2; FIG. 17A
Procedure: (§1) Cultures containing IL-3 or G-CSF were split every three to four days, while Tm-containing cultures were diluted every four days. Cell proliferation assay was performed periodically in 96-well microtiter plates by the 2,3-bis (2-methoxy-4-nitro-5-sulfophenyl)-5-[(phenylamino)-carbonyl]-2H-tetrazolium hydroxide (XTT) method using Cell Proliferation Kit II (Boehringer Mannheim, Mannheim, Germany) [Scudiero D A, et al., Cancer Res., (1988) 48: 4827-4833]. For hormone dose-response analysis, transduced Ba/F3 cells were stimulated by various concentrations of Tm or E2, and XTT assay was performed on day zero and day four. The final concentration of ethanol used to dilute Tm and E2 was 0.1% in all the culture conditions.

[2] = system: Ba/F3 cells into which pCMX-GRΔ(5-195, 725-756)/ER was introduced; assay: XTT proliferation assay, Ba/F3 cells with pCMX-GCRΔ(5-195, 725-756)/ER; format: cell-based; details: estrogen or G-CSF stimulation
[3] = system: Ba/F3 cells into which pCMX-GCRER was introduced; assay: XTT proliferation assay, Ba/F3 cells with pCMX-GCRER; format: cell-based; details: for proliferation of IL-3-independent cells by stimulation: stimulation with G-CSF or estradiol, FIG. 3
Text: The Ba/F3 cells into which “pCMX-GCRER” was introduced were examined.

[4] = system: GCRER-expressing Ba/F3; details: Ito K, et al., Blood (1997), cited from earlier work
[5] = system: BaF/GCRTmR clones; assay: XTT proliferation assay of BaF/GCRTmR clones; format: cell-based; details: for growth of GCRTmR-transduced Ba/F3 cells with stimulator: IL-3, 10^−9 M G-CSF, 10^−7 M Tm or 10^−7 M E2, FIG. 17B-D
Procedure: as §1

[6] = system: Ba/F3 cells into which pCMX-GCRΔ(5-195)/ER was introduced; assay: XTT proliferation assay, Ba/F3 cells with pCMX-GCRΔ(5-195)/ER; format: cell-based; details: G-CSF or estradiol stimulation, FIG. 5
Text: The Ba/F3 cells into which “pCMX-GCRΔ(5-195)/ER” was introduced were then examined.

[7] = system: parental and transduced Ba/F3 cultures; assay: Toxicity of E2 or Tm in Ba/F3 cultures with IL-3; details: concentrations up to 10^−6 M
Procedure: as §1

[8] = system: BaF/ΔGCRTmR clones; assay: XTT proliferation assay of BaF/ΔGCRTmR clones; format: cell-based; details: 10^−9 M G-CSF or 10^−7 M Tm; FIG. 17E-G
Procedure: as §1

[9] = system: Ba/F3 cells; assay: MTS cell proliferation assay of Ba/F3 cells transduced with Mpl chimeric genes; format: cell-based
Procedure: BOSC23 cells were transfected with MSCV/ΔGCR-ER orMSCV/Mpl-ER or MSCV/ΔGCR-Mpl-ER or MSCV/ΔGCR-Mpl-TmR-IRES-EGFP using Transfection MBS Mammalian Transfection Kit (Stratagene) and the viral supernatants were harvested on day two post-transfection. Fibronectin-assisted transduction of IL3-dependentBa/F3 cells was carried out on 6-well plates precoated with CH296 fibronectin fragment (Retronectin; Takara Shuzo) according to a standard procedure. After retroviral infection, ΔGCR-Mpl-TmR-IRES-EGFP transduced Ba/F3 cells (BaF/ΔGCR-Mpl-TmR) were selected with EPICS Elite ESP Cell Sorter. GFP-positive cells were […] and were cloned by limiting dilution with 10^−7 M 4-hydroxytamoxifen (Tm).
Cell proliferation assay was periodically performed using CellTier 96 Aqueous One Solution Cell Proliferation Assay {3-(4,5-dimethylthiazol-2-yl)-5-(3-carboxymethoxyphenyl)-2-(4-sulfophenyl)-2H-tetrazolium (MTS); Promega, Madison, Wis.} essentially according to the manufacturer's instruction. In brief, 20 μl per well of MTS-labeling mixture was added. After the incubation at 37° C. for 2 hours, the spectrophotometeical absorbance was measured at the wave length of 490 nm and 650 nm.

[10] = XTT day four vs day zero, FIG. 19

Molecule	support of untransduced Ba/F3 by stimulator [1]	cell proliferation by stimulation [2]	estradiol concentrations at which cell proliferation was observed ([3]; estradiol varied between 10^−14 and 10^−7 M, FIG. 4)	proliferation of IL-3-independent cells by stimulation [3]	E2 concentration inducing proliferation of GCRER-expressing Ba/F3 [4]	E2 dose optimal to support Ba/F3 cells expressing GCRER or ΔGCRER ([4]; previous study)	response to 10^−6 M E2, clone 3 ([5]; BaF/GCRTmR clone 3, 10^−6 M E2)	response to 10^−6 M E2, the other clones ([5]; BaF/GCRTmR clones 1 and 2, 10^−6 M E2)	growth of GCRTmR-transduced Ba/F3 cells with stimulator [5]	E2 concentration up to which no growth was observed [5, 10]	cell proliferation by stimulation [6]	toxic effects [7]	growth of BaF/ΔGCRTmR clones with stimulator [8]	optimal concentration of Tm to stimulate BaF/GCRTmR [5]	response to 10 M Tm, clone 3 ([5]; BaF/GCRTmR clone 3, 10 M Tm as printed)	Tm concentration at which all three clones grew well [5, 10]	time until cells stopped growing and died upon removal of Tm ([5]; long-term culture without IL-3, FIG. 18)	time Tm alone could support the cells in long-term culture ([5]; without IL-3, FIG. 18)	growth response to TPO in the absence of IL-3 ([9]; 100 ng/ml rhTPO)	growth response to estrogen (E2) in the absence of IL-3 ([9]; 10^−7M β-estradiol)
C[C@]12CC[C@@H]3c4ccc(O)cc4CC[C@H]3[C@@H]1CC[C@@H]2O [estradiol, β-estradiol]	did not support	cell proliferation was caused	10^−9 to 10^−7 M	proliferated	≥ 10^−10 M	10^−7 M	limited response	inert	had no effect	up to 10^−7 M	caused cell proliferation	–	–	–	–	–	–	–	–	–
4-hydroxytamoxifen [Tm]	did not support	–	–	–	–	–	–	–	grew continuously	–	–	neither reagent showed toxic effects	proliferated	10^−7-10^−6 M	partially responded	10^−7-10^−6 M	≤ 24 h	at least 36 days	–	–
B1	did not support	no response	–	proliferated	–	–	–	–	grew continuously	–	blocked	–	did not respond	–	–	–	–	–	–	–
B2	–	–	–	–	–	–	–	–	–	–	–	–	–	–	–	–	–	–	acquired the ability to proliferate	acquired the ability to proliferate
